Assay results published in patent US11008336B2, “Compounds useful for inhibiting RORγt” (Eli Lilly and Company, priority 2017, dated 2021).

What was measured:
[1] = system: anti-CD3/anti-CD28/IL-23 stimulated IL-17 secretion in PBMC's; assay: PBMC IL-17 secretion ELISA; assay type: cell-based; details: Homo sapiens, anti-CD3/anti-CD28/IL-23 stimulation, 48 hours, mean ± standard deviation, read-out: hPBMC IL-17 ELISA (EC50)
Procedure: PBMC's are isolated from whole blood buffy coats by first combining fresh buffy coats with equal volumes of phosphate buffered saline. Thirty five mL of PBS/buffy coat solution are then gently overlaid onto 15 mL of Ficoll in 50 mL conical tubes. Following centrifugation for 30 minutes at 500×g (with slow acceleration and deceleration) the top layer of plasma is discarded and the layer of cells along the Ficoll interface is collected and pooled. Each 250 mL tube is filled to the top with room temperature RPMI-1640 media. Tubes are spun for 10 minutes at 500×G (with slow acceleration and deceleration), the media is removed by aspiration, and the wash step is repeated. Cells are resuspended in ice cold Recovery Cell Culture Freezing Medium from Life Technologies (Catalog number 12648-010) on ice. The cell concentration is adjusted to 66.7 million cells/mL. Cell are slow frozen at −1° C./minute in vials with 100 million cells and stored in liquid nitrogen.
PBMC are brought out of thaw by resuspending with 1 mL of complete media (RPMI-1640 containing 30 mM HEPES, 100 units/mL penicillin, 100 μg/mL streptomycin, 3.25 mM L-Glutamine, 0.2 μM beta-mercaptoethanol, and 10% FBS) followed by the drop wise addition of 2 mL, 4 mL, 8 mL, and 16 mL of complete media with gentle swirling. Cells are spun down for 5 minutes and the cell pellet is resuspended in complete media. Clumps of cells are broken up by running the cell solution through a 23 gauge syringe needle and a […] cell strainer. One hundred thousand cells per well are added to 384 well polystyrene tissue culture treated flat bottomed plates in a total of 30 μL. Stimulation cocktail containing anti-human CD3 antibody, anti-human CD28 antibody, IL-23 and compounds prepared in complete media are added to the cells simultaneously in a total volume of 30 μL. The final concentration of added stimulants is 160 ng/mL, 500 ng/mL, and 5 ng/mL for anti-CD3 antibody, anti-CD28 antibody, and IL-23 respectively and 0.3% for DMSO. Plates are sealed with AERASEAL® sealing film and incubated for 48 hours at 37° C., 95% humidity, and 5% CO2.
Following the incubation period, the plates are spun at 200×g for five minutes. Supernatants are diluted 1:1 with equal volume 1% BSA/PBS and tested for IL-17 with a human IL-17 ELISA kit from R&D system (catalog #D317E) according to the protocol provided with the kit with one exception—the colorimetric substrate OPD (o-phenylenediamine dihydrochloride, Sigma Cat #P6912) is used instead of the substrate supplied in the kit. Absorbance at 492 nm is measured with the Envision multi-label plate reader. A492 values are converted to concentration of IL-17 based on the IL-17 standard curve as shown below: pg/mL IL-17=EC50*[[(Top-Bottom)/(A492-Bottom)]-1](1/-Hill). IC50's for inhibition of IL-17 secretion is calculated based on converted values using a standard 4-parameter fit with maximum inhibition determined from the average values of wells with no added stimulants nor compounds and minimum inhibition from the average values of wells with stimulants alone and no added compound.

PBMC = assay: cells; assay type: cell-based; details: Homo sapiens, 48 h, read-out: Cell TiterGlo Viability (EC50, μM)
Procedure: PBMC's are isolated from whole blood buffy coats by first combining fresh buffy coats with equal volumes of phosphate buffered saline. Thirty five mL of PBS/buffy coat solution are then gently overlaid onto 15 mL of Ficoll in 50 mL conical tubes. Following centrifugation for 30 minutes at 500×g (with slow acceleration and deceleration) the top layer of plasma is discarded and the layer of cells along the Ficoll interface is collected and pooled. […] Tubes are spun for 10 minutes at 500×G (with slow acceleration and deceleration), the media is removed by aspiration, and the wash step is repeated.
Cells are spun down for 5 minutes and the cell pellet is resuspended in complete media. Clumps of cells are broken up by running the cell solution through a 23 gauge syringe needle and a 40 μM cell strainer.
Equal volumes of Cell TITERGLO® cell viability testing reagent (Promega Cat #G7573) are added to the cells remaining in the plates, and following a fifteen minute incubation with gentle shaking at room temperature luminescence is measured with the Envision multi-label plate reader. Percent cell death is calculated by setting 100% activity (cell death) to zero luminescence units and minimum activity (max number of viable cells) as the average luminescence units of wells containing stimulants alone and no added compound. IC50's are calculated using a standard four parameter fit.

[2] = biological target: human RORg ligand binding domain fused to yeast GAL4 DNA binding domain (Homo sapiens (Human), UniProt P51449); assay: HEK293 RORg GAL4 receptor-reporter assay; assay type: cell-based; details: HEK293 cells, RORg-GAL4/pGL4.31 luciferase, 18 hours; mean ± standard deviation; read-out: hIC50
[3] = biological target: human RAR-related orphan receptor alpha (hRORα) (Homo sapiens (Human), UniProt P35398); assay: RORα receptor-ligand competition binding assay; details: His-tagged hRORα, [3H]-25-hydroxycholesterol; mean ± standard deviation; read-out: RORa Ki
Procedure: (§1) His-tagged human RAR-related orphan receptor alpha (hRORα), human RAR-related orphan receptor beta (hRORβ), and human RAR-related orphan receptor gamma (hRORγ) are used for receptor-ligand competition binding assays to determine Ki values. Typical procedures are provided below.
(§2) The final wells contain 20 μg/mL aprotinin and 20 μg/mL leupeptin and 10 μM Pefabloc. Typically, receptor binding assays include radio-labeled ligands, such as 7 nM [^3H]-25-hydroxycholesterol for alpha binding, 20 nM [^3H]-3-[[4-[[3-(2,6-dichlorophenyl)-5-isopropyl-isoxazol-4-yl]methoxy]-N,2-dimethyl-anilino]methyl]benzoic acid for beta binding, and 6 nM [3H]-25-hydroxycholesterol for gamma binding, and 0.5 μg RORα receptor, 0.03 μg RORβ receptor, or 0.13 μg RORγ receptor per well. Assays are typically run in 96-well format. […] Plates are mixed for 30 minutes on an orbital shaker at room temperature. After an incubation of 4 hours, plates are read in a Wallac MICROBETA® counter.
(§3) The data are used to calculate an estimated IC50 using a four parameter logistic fit. The Kd for [^3H]-25-hydroxycholesterol for RORa and RORg, and [^3H]-3-[[4-[[3-(2,6-dichlorophenyl)-5-isopropyl-isoxazol-4-yl]methoxy]-N,2-dimethyl-anilino]methyl]benzoic acid for RORb binding, is determined by saturation binding. The IC50 values for compounds are converted to Ki using the Cheng-Prushoff equation.

[4] = biological target: human RAR-related orphan receptor gamma (hRORγ) (Homo sapiens (Human), UniProt P51449); assay: RORγ receptor-ligand competition binding assay; details: His-tagged hRORγ, [3H]-25-hydroxycholesterol; mean ± standard deviation; read-out: RORg Ki
Procedure: as §1, §2, §3

[5] = biological target: human RAR-related orphan receptor beta (hRORβ) (Homo sapiens (Human), UniProt Q92753); assay: RORβ receptor-ligand competition binding assay; details: His-tagged hRORβ; mean ± standard deviation; read-out: RORb Ki
Procedure: as §1, §2, §3

[6] = system: GPI induced arthritis in DBA/1 mice; assay: Glucose-6-phosphate isomerase (GPI) induced arthritis model; assay type: in vivo, mouse; details: 100 mg/Kg orally once daily
Procedure: The GPI induced arthritis model is adapted from K. Iwanami et al Arthritis Rheumatism 58, 754-763, 2008 and D. Schubert et al. J Immunology 172, 4503-4509, 2004. Mice (8-9 week old male DBA/1 mice) (Harlan) are randomly assigned into treatment groups based on body weights collected on the day of immunization (day 0). On the day of immunization (day 0), a 1:1 (v:v) mixture of recombinant human GPI (diluted to 4 mg/mL in PBS, Gibco) and complete Freund's adjuvant (CFA, Sigma) is mixed on a high speed homogenizer (Omni) for 40 minutes in a cold room. A final concentration of 2 mg/mL GPI is achieved in the emulsion. Mice are injected at the base of the tail (2 sites of injection, subcutaneously, 100 μL each site) with the GPI emulsion. Test compounds are dosed orally starting on the same day as immunization (day 0). Starting on day 0, each paw is scored for severity of joint swelling based on a 0 to 3 scoring system (See K. Iwanami et al Arthritis Rheumatism 58, 754-763, 2008. The clinical score represents the total score of all 4 paws (maximum score=12). Clinical scores are assessed on days 0, 2, 4, 7, 8, 9, 10, 11, 12, 14, 16, 18, and 21.
The AUC is calculated by a trapezoid method for clinical score over time from the day of immunization (day 0) to day 21. Test p-values were derived from Student's t-test.

human RORg ligand binding domain fused to yeast GAL4 DNA binding domain, sequence (P51449 269-508): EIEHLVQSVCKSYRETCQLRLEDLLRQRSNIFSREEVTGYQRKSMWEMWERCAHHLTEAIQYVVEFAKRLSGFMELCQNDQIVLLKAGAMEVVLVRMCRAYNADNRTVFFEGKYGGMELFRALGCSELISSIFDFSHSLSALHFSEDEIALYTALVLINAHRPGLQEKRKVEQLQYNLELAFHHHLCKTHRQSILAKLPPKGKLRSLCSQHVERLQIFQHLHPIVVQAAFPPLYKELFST
human RAR-related orphan receptor beta (hRORβ), sequence (Q92753 whole entry): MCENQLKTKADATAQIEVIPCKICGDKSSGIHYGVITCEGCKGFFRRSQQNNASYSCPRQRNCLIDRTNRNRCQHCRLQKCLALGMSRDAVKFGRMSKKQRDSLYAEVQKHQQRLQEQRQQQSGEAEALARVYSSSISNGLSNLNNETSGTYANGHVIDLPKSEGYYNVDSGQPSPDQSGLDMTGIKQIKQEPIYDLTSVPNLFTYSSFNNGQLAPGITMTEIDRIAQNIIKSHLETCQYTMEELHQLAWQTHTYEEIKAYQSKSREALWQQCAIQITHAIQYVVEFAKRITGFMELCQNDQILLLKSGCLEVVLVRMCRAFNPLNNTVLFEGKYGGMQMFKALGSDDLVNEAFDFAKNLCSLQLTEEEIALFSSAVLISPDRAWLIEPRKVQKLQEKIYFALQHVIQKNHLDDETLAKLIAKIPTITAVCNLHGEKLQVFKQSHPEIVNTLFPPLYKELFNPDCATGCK
human RAR-related orphan receptor alpha (hRORα), sequence (P35398 whole entry): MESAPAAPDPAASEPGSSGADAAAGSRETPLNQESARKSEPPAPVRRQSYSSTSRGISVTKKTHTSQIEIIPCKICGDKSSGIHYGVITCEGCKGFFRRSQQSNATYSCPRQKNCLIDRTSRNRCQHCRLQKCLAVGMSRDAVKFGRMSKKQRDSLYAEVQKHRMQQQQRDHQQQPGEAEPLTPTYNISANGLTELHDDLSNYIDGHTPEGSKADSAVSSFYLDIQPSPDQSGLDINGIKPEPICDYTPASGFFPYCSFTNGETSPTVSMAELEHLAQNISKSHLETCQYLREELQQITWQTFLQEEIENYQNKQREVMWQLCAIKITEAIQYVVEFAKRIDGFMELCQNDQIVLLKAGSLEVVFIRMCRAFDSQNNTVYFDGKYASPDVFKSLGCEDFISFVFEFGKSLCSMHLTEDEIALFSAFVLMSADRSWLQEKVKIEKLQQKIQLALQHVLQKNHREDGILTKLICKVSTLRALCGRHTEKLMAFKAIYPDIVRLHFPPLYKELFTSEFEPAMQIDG
human RAR-related orphan receptor gamma (hRORγ), sequence (P51449 whole entry): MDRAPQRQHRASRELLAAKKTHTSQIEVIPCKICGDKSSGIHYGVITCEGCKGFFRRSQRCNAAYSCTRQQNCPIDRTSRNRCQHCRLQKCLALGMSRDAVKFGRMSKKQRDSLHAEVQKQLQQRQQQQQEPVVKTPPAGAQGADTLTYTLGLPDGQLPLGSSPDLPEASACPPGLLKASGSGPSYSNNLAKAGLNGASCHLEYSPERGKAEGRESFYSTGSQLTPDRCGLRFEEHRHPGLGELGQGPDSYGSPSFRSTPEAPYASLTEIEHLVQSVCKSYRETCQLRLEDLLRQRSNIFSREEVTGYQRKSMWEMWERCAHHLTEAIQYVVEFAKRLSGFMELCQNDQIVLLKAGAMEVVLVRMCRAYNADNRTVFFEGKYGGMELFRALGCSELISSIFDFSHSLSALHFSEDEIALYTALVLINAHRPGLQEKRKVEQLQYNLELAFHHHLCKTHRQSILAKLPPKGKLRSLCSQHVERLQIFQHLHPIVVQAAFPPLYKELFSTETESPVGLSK

Compound | EC50 [1] | EC50 (PBMC) | IC50 [2] | Ki [3] | Ki [4] | Ki [5] | severity of paw swelling and mean clinical scores compared to the vehicle group [6] | reduction in clinical score AUC ([6]; compared to the vehicle group) | Clinical Score AUC (mean ± SEM) ([6]; day 0 to day 21, male DBA/1 mice)
CCS(=O)(=O)c1ccc(CNC(=O)c2cc3c(s2)C2(CCN(C(C)c4cnc(C(F)(F)F)nc4C)CC2)O[C@@H](C)C3)cc1 (single isomer, unassigned; isomer 1) [Example 66, (5′S)-N-[4-(Ethylsulfonyl)benzyl]-5′-methyl-1-{1-[4-methyl-2-(trifluoromethyl)pyrim-idin-5-yl]ethyl}-4′,5′-dihydrospiro[piperidine-4,7′-thieno[2,3-c]pyran]-2′-carboxamide isomer 1] | 13.3 ± 4.7 nM | > 1 µM | 31.4 ± 11.2 nM |  |  |  |  |  | 
CCS(=O)(=O)c1ccc(CNC(=O)c2cc3c(s2)C2(CCN(C(C)c4ccc(C(F)(F)F)nc4)CC2)OC(C)C3)cc1 (single isomer, unassigned; isomer 2) [Example 42, N-[4-(Ethylsulfonyl)benzyl]-5′-methyl-1-{1-[6-(trifluoromethyl)pyridin-3-yl]ethyl}-4′,5′-dihydrospiro[piperidine-4,7′-thieno[2,3-c]pyran]-2′-carboxamide isomer 2] | 8.3 ± 3.8 nM | > 1 µM | 19.9 ± 10.7 nM | > 20400 nM | 4.42 ± 2.7 nM | > 12500 nM |  |  | 
CCS(=O)(=O)c1ccc(CNC(=O)c2cc3c(s2)C2(CCN(C(C)c4ccc(C(F)(F)F)nc4)CC2)OC(C)C3)nc1 (single isomer, unassigned; isomer 2) [Example 46, N-{[5-(Ethylsulfonyl)pyridin-2-yl]methyl}-5′-methyl-1-{1-[6-(trifluoromethyl)pyridin-3-yl]ethyl}-4′,5′-dihydrospiro[piperidine-4,7′-thieno[2,3-c]pyran]-2′-carboxamide isomer 2] | 24.5 ± 11.9 nM | > 1 µM |  | > 20400 nM |  |  |  |  | 
CCS(=O)(=O)c1ccc(CNC(=O)c2cc3c(s2)C2(CCN(C(C)c4cnc(C(F)(F)F)s4)CC2)O[C@@H](C)C3)nc1 (single isomer, unassigned; isomer 2) [Example 55, (5′S)-N-{[5-(Ethylsulfonyl)pyridin-2-yl]methyl}-5′-methyl-1-{1-[2-(trifluoromethyl)-1,3-thiazol-5-yl]ethyl}-4′,5′-dihydrospiro[piperidine-4,7′-thieno[2,3-c]pyran]-2′-carboxamide isomer 2] | 12.6 ± 8.1 nM | > 1 µM |  |  |  | > 12500 nM | reduces severity of paw swelling and maintains lower mean clinical scores | 94% | 7.50 ± 2.08
CCS(=O)(=O)c1ccc(CNC(=O)c2cc3c(s2)C2(CCN(C(C)c4cnc(C(F)(F)F)nc4C)CC2)O[C@@H](C)C3)nc1 (single isomer, unassigned; isomer 2) [Example 69, (5′S)-N-{[5-(Ethylsulfonyl)pyridin-2-yl]methyl}-5′-methyl-1-{1-[4-methyl-2-(trifluoromethyl)pyrim-idin-5-yl]ethyl}-4′,5′-dihydrospiro[piperidine-4,7′-thieno[2,3-c]pyran]-2′-carboxamide isomer 2] | 30 ± 18.5 nM | > 1 µM | 15.4 ± 13.4 nM |  |  |  |  |  | 
CCS(=O)(=O)c1ccc(CNC(=O)c2cc3c(s2)C2(CCN([C@H](C)c4cnc(C(F)(F)F)nc4)CC2)O[C@@H](C)C3)cc1 [Example 16, (5′S)—N-[4-(Ethylsulfonyl)benzyl]-5′-methyl-1-{(1R)-1-[2-(trifluoromethyl)pyrimidin-5-yl]ethyl}-4′,5′-dihydrospiro[piperidine-4,7′-thieno[2,3-c]pyran]-2′-carboxamide] |  | > 1 µM |  |  |  | > 12500 nM |  |  | 
CCS(=O)(=O)c1ccc(CNC(=O)c2cc3c(s2)C2(CCN(Cc4ccc(-c5ncon5)cc4F)CC2)O[C@@H](C)C3)nc1 [Example 25, (5′S)-N-{[5-(Ethylsulfonyl)pyridin-2-yl]methyl}-1-[2-fluoro-4-(1,2,4-oxadiazol-3-yl)benzyl]-5′-methyl-4′,5′-dihydrospiro[piperidine-4,7′-thieno[2,3-c]pyran]-2′-carboxamide] | 30.8 ± 25.7 nM | > 1 µM | 16.2 ± 9.7 nM |  | 6.04 ± 1.19 nM |  |  |  | 
CCS(=O)(=O)c1ccc(CNC(=O)c2cc3c(s2)C2(CCN([C@@H](C)c4ccc(C#N)cc4)CC2)OCC3)cc1 [Example 64, 1-[(1S)-1-(4-Cyanophenyl)ethyl]-N-[4-(ethylsulfonyl)benzyl]-4′,5′-dihydrospiro[piperidine-4,7′-thieno[2,3-c]pyran]-2′-carboxamide] |  | > 3 µM |  |  |  | > 22700 nM |  |  | 
